Source: patent publication EP4579344A1, “THIOALKYLCOUMARIN PHOTOSENSITIZERS FOR PHOTOPOLYMERIZATION” (IGM Group B.V., priority 2023, dated 2025)

How the values were obtained:
[1] = Fluorescence emission peak wavelength; type: physicochemical; details: dilute solution (A ~0.1) in acetonitrile; excitation at absorption maximum
Procedure: Fluorescence emission peak wavelength: Fluorescence spectra of the photosensitizers were recorded using a Horiba Jobin Yvon Fluoromax4 spectrofluorometer. The measurement for each photosensitizer was taken in a dilute solution (A ~0.1) of spectroscopic grade acetonitrile, using 1 cm path cell. The excitation wavelength was set at the maximum of absorption of the photosensitizer.

[2] = Maximum absorption peak wavelength; type: physicochemical; details: spectroscopic grade acetonitrile; maximum between 300 nm and 450 nm
Procedure: Maximum absorption peak wavelength: Absorption spectra have been recorded using an AnalytikJena S600 spectrophotometer. On a microbalance, the photosensitizer was weighted with a 10^-6 g precision in a DSC crucible. The crucible and its content was transferred in volumetric flask, then filled with spectroscopic grade acetonitrile. The reference was taken for the empty spectrometer, and two series of spectra were recorded for each solution, in a 1 cm path and in a 1 mm path cells. The spectra of the solvent was taken separately in both cell and then subtracted to solutions spectra. The absorption maxima value is taken where the absorption spectra reaches its maximum in the region between (300 nm and 450 nm)

Row | SMILES | λ^fluo max [1] | λ^abs max [2]
1 | CCSc1ccc2cc(-c3ccccc3)c(=O)oc2c1 [S1] | 440 nm | 345 nm
2 | CCCCC(CC)CSc1ccc2cc(-c3ccccc3)c(=O)oc2c1 (stereo not drawn) [S2] | 411 nm | 352 nm
3 | CCSc1ccc(-c2cc3ccc(SCC)cc3oc2=O)cc1 [S3] | 439 nm | 347 nm
4 | CN(C)CCSc1ccc2cc(-c3ccccc3)c(=O)oc2c1 [S4] | 435 nm | 351 nm
5 | Cc1cc(=O)oc2cc(SCCO)ccc12 [S5] | 396 nm | 330 nm
6 | Cc1c(-c2ccccc2)c(=O)oc2cc(SCCO)ccc12 [S6] | 424 nm | 335 nm
7 | CSc1ccc2cc(-c3nc4ccccc4n3C)c(=O)oc2c1 [S7] | 476 nm | 362 nm
8 | CCN(CC)c1ccc2c(C)cc(=O)oc2c1 [S8, 7-diethylamino-4-methylcoumarin, reference compound] | 434 nm | 370 nm
9 | CCSc1ccc2ccc(=O)oc2c1 [S9] | 406 nm | 323 nm
